Measured values as given in patent US20230103791A1 (GLAXOSMITHKLINE INTELLECTUAL PROPERTY DEVELOPMENT LIMITED, priority 2019, published 2023).

The compounds below were run against T1, human Nav1.8 (Homo sapiens, UniProt Q9Y5Y9) (assay: Nav1.8 sodium channels assay, QPatch 48 HTX electrophysiology in HEK293-Nav1.8 cells). Conditions: at least one set of experimental runs; read-out: average pIC50 value against Nav1.8 (converted).
T1 construct: expressed in transfected cells; host or cells: HEK293 (HEK293-Nav1.8)
T1 sequence (Q9Y5Y9 whole entry): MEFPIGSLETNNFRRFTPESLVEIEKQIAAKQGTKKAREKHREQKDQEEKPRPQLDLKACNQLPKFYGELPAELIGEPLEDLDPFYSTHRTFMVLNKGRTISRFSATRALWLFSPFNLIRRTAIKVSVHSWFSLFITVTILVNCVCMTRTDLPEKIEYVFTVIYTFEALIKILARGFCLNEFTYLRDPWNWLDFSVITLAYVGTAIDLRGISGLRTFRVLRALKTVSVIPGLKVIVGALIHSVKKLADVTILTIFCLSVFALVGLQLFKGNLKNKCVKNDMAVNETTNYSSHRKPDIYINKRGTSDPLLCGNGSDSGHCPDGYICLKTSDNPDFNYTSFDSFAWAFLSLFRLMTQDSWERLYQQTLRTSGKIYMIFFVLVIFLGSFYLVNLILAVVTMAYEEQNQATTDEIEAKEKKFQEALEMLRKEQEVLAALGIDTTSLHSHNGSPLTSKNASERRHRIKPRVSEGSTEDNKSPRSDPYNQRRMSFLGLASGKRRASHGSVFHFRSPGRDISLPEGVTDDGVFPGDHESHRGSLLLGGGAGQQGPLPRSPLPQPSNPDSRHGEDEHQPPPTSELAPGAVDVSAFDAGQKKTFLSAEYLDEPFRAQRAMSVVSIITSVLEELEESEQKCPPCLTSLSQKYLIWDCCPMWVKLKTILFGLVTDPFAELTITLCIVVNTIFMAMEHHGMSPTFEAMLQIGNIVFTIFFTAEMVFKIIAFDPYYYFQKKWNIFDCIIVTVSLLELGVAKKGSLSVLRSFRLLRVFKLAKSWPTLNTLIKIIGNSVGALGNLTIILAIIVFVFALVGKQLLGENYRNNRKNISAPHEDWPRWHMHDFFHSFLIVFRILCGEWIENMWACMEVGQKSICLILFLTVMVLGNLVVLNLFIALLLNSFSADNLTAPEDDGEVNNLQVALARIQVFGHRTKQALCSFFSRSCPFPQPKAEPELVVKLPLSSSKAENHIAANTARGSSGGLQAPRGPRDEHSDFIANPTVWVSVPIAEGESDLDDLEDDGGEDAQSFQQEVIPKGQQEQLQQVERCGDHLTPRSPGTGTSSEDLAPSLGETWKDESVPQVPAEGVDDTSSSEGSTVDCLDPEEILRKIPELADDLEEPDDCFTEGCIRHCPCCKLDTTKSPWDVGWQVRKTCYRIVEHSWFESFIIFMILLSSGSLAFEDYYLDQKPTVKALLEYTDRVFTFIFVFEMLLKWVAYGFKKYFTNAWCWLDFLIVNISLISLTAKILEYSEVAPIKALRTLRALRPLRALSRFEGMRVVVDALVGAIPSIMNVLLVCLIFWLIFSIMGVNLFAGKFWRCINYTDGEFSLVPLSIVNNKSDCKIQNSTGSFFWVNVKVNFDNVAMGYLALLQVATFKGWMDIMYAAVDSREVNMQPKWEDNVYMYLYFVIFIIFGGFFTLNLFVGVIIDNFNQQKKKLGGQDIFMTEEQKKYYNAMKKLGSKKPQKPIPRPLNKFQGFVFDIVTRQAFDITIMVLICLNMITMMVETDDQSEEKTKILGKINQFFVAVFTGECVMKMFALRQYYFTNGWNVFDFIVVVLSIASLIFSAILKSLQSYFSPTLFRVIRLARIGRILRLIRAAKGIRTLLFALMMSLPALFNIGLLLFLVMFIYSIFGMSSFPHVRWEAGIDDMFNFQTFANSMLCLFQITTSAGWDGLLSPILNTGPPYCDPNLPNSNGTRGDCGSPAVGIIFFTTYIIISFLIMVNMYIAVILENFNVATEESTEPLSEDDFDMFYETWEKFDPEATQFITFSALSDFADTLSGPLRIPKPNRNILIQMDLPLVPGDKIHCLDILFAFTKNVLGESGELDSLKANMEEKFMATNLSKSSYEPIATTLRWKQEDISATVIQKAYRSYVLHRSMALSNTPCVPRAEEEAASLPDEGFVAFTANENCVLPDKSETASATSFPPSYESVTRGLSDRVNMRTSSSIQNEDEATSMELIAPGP
T1 sequence (Q07699 19-218 partner): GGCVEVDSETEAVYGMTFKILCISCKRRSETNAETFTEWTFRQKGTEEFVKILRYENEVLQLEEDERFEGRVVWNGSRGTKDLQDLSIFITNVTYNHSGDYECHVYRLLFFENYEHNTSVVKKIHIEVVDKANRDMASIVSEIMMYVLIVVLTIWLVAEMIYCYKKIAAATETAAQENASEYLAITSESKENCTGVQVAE
Format: cell-based
How it was run: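 HEK293 cells co-expressing human Nav1.8, Navβ1 and TREK1 were voltage-clamped on QPatch 48 HTX. The V1/2 protocol ran at 0.07 Hz: hold −100 mV, 20 ms to 0 mV, 8 s at −46 mV, 20 ms at −100 mV, then 20 ms at 0 mV (P2). P2 current was fitted over 6-8 concentrations for IC50, with vehicle wells used to correct for run-down.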
In the case of `Cc1cc(F)ccc1N1CN(c2ccc(=O)[nH]c2C)C(=O)c2c1ccc(Cl)c2F` [Example 79, 6-chloro-5-fluoro-1-(4-fluoro-2-methylphenyl)-3-(2-methyl-6-oxo-1,6-dihydropyridin-3-yl)-2,3-dihydroquinazolin-4(1H)-one], the IC50 is reported as at most 100 nM.
In the case of `Cc1cc(F)ccc1N1CN(c2ccc(=O)[nH]c2C)C(=O)c2ccc(S(C)(=O)=O)cc21` [Example 80, 1-(4-fluoro-2-methylphenyl)-3-(2-methyl-6-oxo-1,6-dihydropyridin, 3-yl)-7-(methylsulfonyl)-2,3-dihydroquinazolin-4(1H)-one], the IC50 is reported as 794 to 7940 nM.
`CCc1cc(F)ccc1N1CN(c2ccc(=O)[nH]c2C)C(=O)c2cc(Cl)ccc21` [Example 81, 6-chloro-1-(2-ethyl-4-fluorophenyl)-3-(2-methyl-6-oxo-1,6-dihydropyridin-3-yl)-2,3-dihydroquinazolin-4(1H)-one] showed an IC50 of at most 100 nM.
`Cc1cc(=O)[nH]c(C)c1N1CN(c2ccc(F)cc2C(C)C)c2ccc(Cl)cc2C1=O` [Example 82, 6-chloro-3-(2,4-dimethyl-6-oxo-1,6-dihydropyridin-3-yl)-1-(4-fluoro-2-isopropylphenyl)-2,3-dihydroquinazolin-4(1H)-one] was tested, and the IC50 was 126 to 631 nM.
`CCc1[nH]c(=O)ccc1N1CN(c2ccc(F)cc2C(C)C)c2cc(C(F)(F)F)ccc2C1=O` [Example 83, 3-(2-ethyl-6-oxo-1,6-dihydropyridin-3-yl)-1-(4-fluoro-2-isopropylphenyl)-7-(trifluoromethyl)-2,3-dihydroquinazolin-4(1H)-one] was tested, and the IC50 was at most 100 nM.
In the case of `Cc1cc(F)ccc1N1CN(c2c[nH]c(=O)cn2)C(=O)c2ccc(C(F)(F)F)cc21` [Example 84, 1-(4-fluoro-2-methylphenyl)-3-(5-oxo-4,5-dihydropyrazin-2-yl)-7-(trifluoromethyl)-2,3-dihydroquinazolin-4(1H)-one], the IC50 is reported as 794 to 7940 nM.
Compound `Cc1cc2c(cc1F)C(=O)N(c1ccc(=O)[nH]c1C)CN2c1ccc(F)cc1C` [Example 85, 6-fluoro-1-(4-fluoro-2-methylphenyl)-7-methyl-3-(2-methyl-6-oxo-1,6-dihydropyridin-3-yl)-2,3-dihydroquinazolin-4(1H)-one] has an IC50 of at most 100 nM.
Work on `Cc1[nH]c(=O)ccc1N1CN(c2ccccc2)c2cc(C(F)(F)F)ccc2C1=O` [Example 86, 3-(2-methyl-6-oxo-1,6-dihydropyridin-3-yl)-1-phenyl-7-(trifluoromethyl)-2,3-dihydroquinazolin-4(1H)-one] yielded an IC50 of 794 to 7940 nM.
With `Cc1ccccc1N1CN(c2ccc(=O)[nH]c2C)C(=O)c2ccc(C(F)(F)F)cc21` [Example 87, 3-(2-methyl-6-oxo-1,6-dihydropyridin-3-yl)-1-(o-tolyl)-7-(trifluoromethyl)-2,3-dihydroquinazolin-4(1H)-one] the IC50 was at most 100 nM.
For `Cc1cc(F)ccc1N1CN(c2ccc(=O)[nH]c2C)C(=O)c2c(Cl)cccc21` [Example 88, 5-chloro-1-(4-fluoro-2-methylphenyl)-3-(2-methyl-6-oxo-1,6-dihydropyridin-3-yl)-2,3-dihydroquinazolin-4(1H)-one], the IC50 was 126 to 631 nM.
`Cc1cc(F)ccc1N1CN(c2ccc(=O)[nH]c2C)C(=O)c2c(C)cccc21` [Example 89, 1-(4-fluoro-2-methylphenyl)-5-methyl-3-(2-methyl-6-oxo-1,6-dihydropyridin-3-yl)-2,3-dihydroquinazolin-4(1H)-one] was tested, and the IC50 was at most 100 nM.
Compound `Cc1cc(F)ccc1N1CN(c2ccc(=O)[nH]c2C2CC2)C(=O)c2ccc(C(F)(F)F)cc21` [Example 90, 3-(2-cyclopropyl-6-oxo-1,6-dihydropyridin-3-yl)-1-(4-fluoro-2-methylphenyl)-7-(trifluoromethyl)-2,3-dihydroquinazolin-4(1H)-one] has an IC50 of at most 100 nM.
Work on `COc1cc(F)ccc1N1CN(c2ccc(=O)[nH]c2C)C(=O)c2cc(Cl)ccc21` [Example 91, 6-chloro-1-(4-fluoro-2-methoxyphenyl)-3-(2-methyl-6-oxo-1,6-dihydropyridin-3-yl)-2,3-dihydroquinazolin-4(1H)-one] yielded an IC50 of at most 100 nM.
`Cc1cc(F)ccc1N1CN(c2cc(=O)[nH]n2C)C(=O)c2ccc(C(F)(F)F)cc21` [Example 92, 1-(4-fluoro-2-methylphenyl)-3-(2-methyl-5-oxo-2,5-dihydro-1H-pyrazol-3-yl)-7-(trifluoromethyl)-2,3-dihydroquinazolin-4(1H)-one] showed an IC50 of 126 to 631 nM.
With `Cc1[nH]c(=O)ccc1N1CN(c2ccc(F)cc2C(C)C)c2cc(F)ccc2C1=O` [Example 93, 7-fluoro-1-(4-fluoro-2-isopropylphenyl)-3-(2-methyl-6-oxo-1,6-dihydropyridin-3-yl)-2,3-dihydroquinazolin-4(1H)-one] the IC50 was at most 100 nM.
Work on `Cc1cc(F)ccc1N1CN(c2c(C)nc(=O)[nH]c2C)C(=O)c2ccc(C(F)(F)F)cc21` [Example 94, 3-(4,6-dimethyl-2-oxo-1,2-dihydropyrimidin-5-yl)-1-(4-fluoro-2-methylphenyl)-7-(trifluoromethyl)-2,3-dihydroquinazolin-4(1H)-one] yielded an IC50 of 794 to 7940 nM.
For `Cc1[nH]c(=O)ccc1N1CN(c2ccc(F)cc2C(C)(C)C)c2ccc(Cl)cc2C1=O` [Example 95, 1-(2-(tert-butyl)-4-fluorophenyl)-6-chloro-3-(2-methyl-6-oxo-1,6-dihydropyridin-3-yl)-2,3-dihydroquinazolin-4(1H)-one], the IC50 was at most 100 nM.
In the case of `Cc1[nH]c(=O)ccc1N1CN(c2ccc(F)c(F)c2C)c2ccc(C(F)(F)F)cc2C1=O` [Example 96, 1-(3,4-difluoro-2-methylphenyl)-3-(2-methyl-6-oxo-1,6-dihydropyridin-3-yl)-6-(trifluoromethyl)-2,3-dihydroquinazolin-4(1H)-one], the IC50 is reported as at most 100 nM.
Work on `Cc1[nH]c(=O)ccc1N1CN(c2ccc(F)cc2C(C)C)c2ccc(Cl)c(C)c2C1=O` [Example 97, 6-chloro-1-(4-fluoro-2-isopropylphenyl)-5-methyl-3-(2-methyl-6-oxo-1,6-dihydropyridin-3-yl)-2,3-dihydroquinazolin-4(1H)-one] yielded an IC50 of at most 100 nM.
Compound `Cc1[nH]c(=O)ccc1N1CN(c2ccc(F)cc2C(C)C)c2cc(F)c(Cl)cc2C1=O` [Example 98, 6-chloro-7-fluoro-1-(4-fluoro-2-isopropylphenyl)-3-(2-methyl-6-oxo-1,6-dihydropyridin-3-yl)-2,3-dihydroquinazolin-4(1H)-one] has an IC50 of at most 100 nM.
`COc1ccc2c(c1)N(c1ccc(F)cc1C)CN(c1ccc(=O)[nH]c1C)C2=O` [Example 99, 1-(4-fluoro-2-methylphenyl)-7-methoxy-3-(2-methyl-6-oxo-1,6-dihydropyridin-3-yl)-2,3-dihydroquinazolin-4(1H)-one] showed an IC50 of at most 100 nM.
In the case of `Cc1cc(F)ccc1N1CN(c2ccc(=O)[nH]c2C)C(=O)c2cc(O)c(C(F)(F)F)cc21` [Example 100, 1-(4-fluoro-2-methylphenyl)-6-hydroxy-3-(2-methyl-6-oxo-1,6-dihydropyridin-3-yl)-7-(trifluoromethyl)-2,3-dihydroquinazolin-4(1H)-one], the IC50 is reported as 794 to 7940 nM.
`COc1cc2c(cc1C(F)(F)F)N(c1ccc(F)cc1C)CN(c1ccc(=O)[nH]c1C)C2=O` [Example 101, 1-(4-fluoro-2-methylphenyl)-6-methoxy-3-(2-methyl-6-oxo-1,6-dihydropyridin-3-yl)-7-(trifluoromethyl)-2,3-dihydroquinazolin-4(1H)-one] gave an IC50 of at most 100 nM.
For `Cc1cc(F)ccc1N1CN(c2ccc(=O)[nH]c2C)C(=O)c2cc(Cl)cnc21` [Example 102, 6-chloro-1-(4-fluoro-2-methylphenyl)-3-(2-methyl-6-oxo-1,6-dihydropyridin-3-yl)-2,3-dihydropyrido[2,3-d]pyrimidin-4(1H)-one], the IC50 was 126 to 631 nM.
`Cc1[nH]c(=O)ccc1N1CN(c2ccc(F)cc2C(C)C)c2cc(OC(F)(F)F)ccc2C1=O` [Example 103, 1-(4-fluoro-2-isopropylphenyl)-3-(2-methyl-6-oxo-1,6-dihydropyridin-3-yl)-7-(trifluoromethoxy)-2,3-dihydroquinazolin-4(1H)-one] gave an IC50 of at most 100 nM.
`Cc1cc(F)ccc1N1CN(c2ccc(=O)[nH]c2C)C(=O)c2cc(Cl)c(F)cc21` [Example 104, 6-chloro-7-fluoro-1-(4-fluoro-2-methylphenyl)-3-(2-methyl-6-oxo-1,6-dihydropyridin-3-yl)-2,3-dihydroquinazolin-4(1H)-one] was tested, and the IC50 was at most 100 nM.
With `Cc1cc(F)ccc1N1CN(c2ccc(=O)[nH]c2C)C(=O)c2cc(Cl)c(C#N)cc21` [Example 105, 6-chloro-1-(4-fluoro-2-methylphenyl)-3-(2-methyl-6-oxo-1,6-dihydropyridin-3-yl)-4-oxo-1,2,3,4-tetrahydroquinazoline-7-carbonitrile] the IC50 was at most 100 nM.
`CCc1[nH]c(=O)ccc1N1CN(c2ccc(F)cc2C)c2ccc(Cl)cc2C1=O` [Example 106, 6-chloro-3-(2-ethyl-6-oxo-1,6-dihydropyridin-3-yl)-1-(4-fluoro-2-methylphenyl)-2,3-dihydroquinazolin-4(1H)-one] was tested, and the IC50 was at most 100 nM.
With `Cc1cc(F)ccc1N1CN(c2ccc(=O)[nH]c2C)C(=O)c2cc(C(F)(F)F)c(F)cc21` [Example 107, 7-fluoro-1-(4-fluoro-2-methylphenyl)-3-(2-methyl-6-oxo-1,6-dihydropyridin-3-yl)-6-(trifluoromethyl)-2,3-dihydroquinazolin-4(1H)-one] the IC50 was at most 100 nM.
`Cc1cc(F)ccc1N1CN(c2ccc(=O)[nH]c2C)C(=O)c2c1ccc(C(F)(F)F)c2F` [Example 108, 5-fluoro-1-(4-fluoro-2-methylphenyl)-3-(2-methyl-6-oxo-1,6-dihydropyridin-3-yl)-6-(trifluoromethyl)-2,3-dihydroquinazolin-4(1H)-one] showed an IC50 of at most 100 nM.
Compound `Cc1cc(F)ccc1N1CN(c2ccc(=O)[nH]c2C)C(=O)c2cc(F)c(Cl)cc21` [Example 109, 7-chloro-6-fluoro-1-(4-fluoro-2-methylphenyl)-3-(2-methyl-6-oxo-1,6-dihydropyridin-3-yl)-2,3-dihydroquinazolin-4(1H)-one] has an IC50 of at most 100 nM.
